Values joined by “and” are separate entries in the source; they are usually repeats but may differ in a detail not shown here. Equal values may be shown once. Read-outs that look alike come from different tables or passages of the source. One block for each compound: values may come before it.
Columns and labels:
HEK293T cells = experiment: Drug sensitivity assay (CellTiter-Glo viability) with or without MLN4924 pretreatment; assay type: cell-based, human; conditions: Supplementary Table 2; for EC50: Homo sapiens, HEK-293T, HEK293T viability, 72 h, compound alone, read-out: Cellular assays EC50; for Toxicity rescue: MLN4924-mediated cytotoxicity rescue, 10 µM used where n.d.
In short: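 HEK293T–Cas9 cells at 0.15 × 10^6 ml^−1 were treated with DMSO or 100 nM MLN4924 before plating. Test drugs were added 2 h later and exposure lasted 3 days. Viability was read by CellTiter-Glo luminescence and expressed relative to DMSO controls.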

CDK13 = target: T1, CDK13 (Homo sapiens, UniProt Q14004+Q16531); experiment: Label-free quantitative mass spectrometry in MDA-MB-231 cells, CDK13; assay type: cell-based; conditions: for CDK13 peptide count: label-free quantitative MS, replicate values; for CDK13 peptide count (DMSO-normalised): normalised to DMSO = 1, replicate values
T1 construct: endogenous in cells; host or cells: MDA-MB-231
T1 sequence (Q14004 whole entry): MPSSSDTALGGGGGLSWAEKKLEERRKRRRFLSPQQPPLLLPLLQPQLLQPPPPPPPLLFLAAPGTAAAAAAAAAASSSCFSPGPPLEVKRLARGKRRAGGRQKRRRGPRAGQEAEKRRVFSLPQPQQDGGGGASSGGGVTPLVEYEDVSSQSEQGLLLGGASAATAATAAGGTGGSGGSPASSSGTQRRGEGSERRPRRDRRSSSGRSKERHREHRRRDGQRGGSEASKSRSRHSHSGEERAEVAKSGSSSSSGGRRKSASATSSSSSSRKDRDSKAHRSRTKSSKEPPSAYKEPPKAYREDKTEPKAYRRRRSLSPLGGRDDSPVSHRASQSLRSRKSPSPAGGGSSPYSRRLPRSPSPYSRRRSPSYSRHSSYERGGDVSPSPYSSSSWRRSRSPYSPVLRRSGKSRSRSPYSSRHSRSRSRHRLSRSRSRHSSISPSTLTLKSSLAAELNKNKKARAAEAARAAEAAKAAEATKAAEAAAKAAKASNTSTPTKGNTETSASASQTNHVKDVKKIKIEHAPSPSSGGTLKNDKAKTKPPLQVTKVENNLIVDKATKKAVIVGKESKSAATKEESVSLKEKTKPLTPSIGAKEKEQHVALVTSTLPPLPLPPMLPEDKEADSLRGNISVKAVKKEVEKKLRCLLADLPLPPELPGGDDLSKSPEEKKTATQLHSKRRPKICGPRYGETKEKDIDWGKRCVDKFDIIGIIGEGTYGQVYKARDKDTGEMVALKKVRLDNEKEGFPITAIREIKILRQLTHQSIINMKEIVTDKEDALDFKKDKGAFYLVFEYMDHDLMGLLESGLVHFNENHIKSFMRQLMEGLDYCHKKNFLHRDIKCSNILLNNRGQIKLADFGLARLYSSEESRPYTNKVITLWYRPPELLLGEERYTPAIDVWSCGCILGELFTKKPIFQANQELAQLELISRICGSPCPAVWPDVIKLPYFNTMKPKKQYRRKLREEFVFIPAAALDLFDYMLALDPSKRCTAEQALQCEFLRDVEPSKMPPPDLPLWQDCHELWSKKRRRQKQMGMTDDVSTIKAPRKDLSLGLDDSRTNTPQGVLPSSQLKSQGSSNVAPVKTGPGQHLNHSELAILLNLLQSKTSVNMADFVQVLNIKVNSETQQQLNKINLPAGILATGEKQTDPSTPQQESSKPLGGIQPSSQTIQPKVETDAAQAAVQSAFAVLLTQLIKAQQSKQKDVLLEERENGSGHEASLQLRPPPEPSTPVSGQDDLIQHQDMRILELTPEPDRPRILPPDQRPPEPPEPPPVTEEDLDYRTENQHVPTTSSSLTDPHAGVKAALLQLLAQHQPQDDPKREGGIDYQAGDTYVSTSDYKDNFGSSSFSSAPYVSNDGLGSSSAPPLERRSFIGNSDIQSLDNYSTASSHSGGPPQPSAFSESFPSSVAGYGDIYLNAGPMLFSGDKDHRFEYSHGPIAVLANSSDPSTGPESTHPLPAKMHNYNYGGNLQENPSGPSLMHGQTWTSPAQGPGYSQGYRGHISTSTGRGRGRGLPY
T1 sequence (O75909 whole entry partner): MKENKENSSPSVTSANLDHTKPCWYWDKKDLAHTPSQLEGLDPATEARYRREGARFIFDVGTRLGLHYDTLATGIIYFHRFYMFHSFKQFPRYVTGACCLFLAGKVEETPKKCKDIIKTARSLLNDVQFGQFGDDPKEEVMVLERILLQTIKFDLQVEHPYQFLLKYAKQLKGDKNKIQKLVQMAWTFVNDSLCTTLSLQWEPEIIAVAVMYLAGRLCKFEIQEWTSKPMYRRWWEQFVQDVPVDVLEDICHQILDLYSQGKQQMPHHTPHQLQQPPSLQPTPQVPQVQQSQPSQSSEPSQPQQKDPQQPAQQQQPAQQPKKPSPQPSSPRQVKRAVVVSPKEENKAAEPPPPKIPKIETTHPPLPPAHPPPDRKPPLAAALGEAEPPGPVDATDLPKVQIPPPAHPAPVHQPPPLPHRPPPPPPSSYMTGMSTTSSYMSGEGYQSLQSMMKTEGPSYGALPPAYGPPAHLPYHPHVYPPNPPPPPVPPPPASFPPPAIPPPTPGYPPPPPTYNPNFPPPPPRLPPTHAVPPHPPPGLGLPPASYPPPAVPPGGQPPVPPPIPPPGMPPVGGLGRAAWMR
T1 sequence (Q16531 2-1140 limits assumed): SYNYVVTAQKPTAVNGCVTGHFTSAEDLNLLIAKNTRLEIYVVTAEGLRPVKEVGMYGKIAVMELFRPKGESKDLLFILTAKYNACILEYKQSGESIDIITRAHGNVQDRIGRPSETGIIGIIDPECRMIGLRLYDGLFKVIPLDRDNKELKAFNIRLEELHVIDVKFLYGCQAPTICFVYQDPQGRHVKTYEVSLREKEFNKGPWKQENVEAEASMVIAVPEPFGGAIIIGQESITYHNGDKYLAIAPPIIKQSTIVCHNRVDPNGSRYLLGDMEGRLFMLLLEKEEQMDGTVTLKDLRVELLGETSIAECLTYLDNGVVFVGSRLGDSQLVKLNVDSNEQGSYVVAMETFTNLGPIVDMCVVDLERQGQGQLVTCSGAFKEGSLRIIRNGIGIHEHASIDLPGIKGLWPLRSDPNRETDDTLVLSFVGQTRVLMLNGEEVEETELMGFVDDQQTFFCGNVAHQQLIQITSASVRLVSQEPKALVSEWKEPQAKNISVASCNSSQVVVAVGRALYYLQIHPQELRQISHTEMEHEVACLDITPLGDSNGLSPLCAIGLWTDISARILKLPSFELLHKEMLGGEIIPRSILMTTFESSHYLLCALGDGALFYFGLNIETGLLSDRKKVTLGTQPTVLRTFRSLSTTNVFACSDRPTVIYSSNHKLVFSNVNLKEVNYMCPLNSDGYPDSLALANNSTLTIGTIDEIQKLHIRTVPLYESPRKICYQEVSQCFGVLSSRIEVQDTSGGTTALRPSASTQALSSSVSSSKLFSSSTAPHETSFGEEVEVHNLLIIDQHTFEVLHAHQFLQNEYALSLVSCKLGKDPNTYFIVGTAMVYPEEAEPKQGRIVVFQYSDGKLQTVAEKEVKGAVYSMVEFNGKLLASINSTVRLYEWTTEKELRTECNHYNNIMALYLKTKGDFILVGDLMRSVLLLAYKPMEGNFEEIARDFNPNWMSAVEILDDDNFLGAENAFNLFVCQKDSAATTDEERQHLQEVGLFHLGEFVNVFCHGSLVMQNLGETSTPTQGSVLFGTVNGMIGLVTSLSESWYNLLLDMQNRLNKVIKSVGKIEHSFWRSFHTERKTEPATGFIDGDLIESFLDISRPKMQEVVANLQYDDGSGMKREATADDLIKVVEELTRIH
Description: MDA-MB-231 cells were treated with DMSO or a cyclin K degrader compound at 1 µM for 5 h. Cells were collected by centrifugation and washed with phosphate-buffered saline before snap freezing in liquid nitrogen. Cells were lysed by addition of lysis buffer (8 M urea, 50 mM NaCl, 50 mM 4-(2-hydroxyethyl)-1-piperazineethanesulfonic acid (EPPS) pH 8.5, and protease and phosphatase inhibitors) and homogenization by bead beating (BioSpec) for three repeats of 30 s at 2,400 rpm. Bradford assay was used to determine the final protein concentration in the clarified cell lysate. Then 50 µg of protein for each sample was reduced, alkylated and precipitated using methanol/chloroform as previously described, and the resulting washed precipitated protein was allowed to air dry. Precipitated protein was resuspended in 4 M urea, 50 mM HEPES pH 7.4, followed by dilution to 1 M urea with the addition of 200 mM EPPS, pH 8. Proteins were first digested with LysC (1:50; enzyme:protein) for 12 h at room temperature. The LysC digestion was diluted to 0.5 M urea with 200 mM EPPS pH 8 followed by digestion with trypsin (1:50; enzyme:protein) for 6 h at 37 °C. Sample digests were acidified with formic acid to a pH of 2–3 before desalting using C18 solid phase extraction plates (SOLA, Thermo Fisher Scientific). Desalted peptides were dried in a vacuum-centrifuged and reconstituted in 0.1% formic acid for liquid chromatography–mass spectrometry analysis.
Data were collected using a TimsTOF Pro2 (Bruker Daltonics) coupled to a nanoElute LC pump (Bruker Daltonics) via a CaptiveSpray nano-electrospray source. Peptides were separated on a reversed-phase C18 column (25 cm × 75 µm inner diameter, […], IonOpticks) containing an integrated captive spray emitter. Peptides were separated using a 50 min gradient of 2–30% buffer B (acetonitrile in 0.1% formic acid) with a flow rate of 250 nl min^−1 and column temperature maintained at 50 °C.
Data-dependent acquisition (DDA) was performed in Parallel Accumulation-Serial Fragmentation (PASEF) mode to determine effective ion mobility windows for downstream diaPASEF data collection. The ddaPASEF parameters included: 100% duty cycle using accumulation and ramp times of 50 ms each, one Trapped Ion Mobility Spectrometry(TIMS)-MS scan and ten PASEF ramps per acquisition cycle. The TIMS-MS survey scan was acquired between 100 m/z and 1,700 m/z and 1/K0 of 0.7–1.3 V s cm^−2. Precursors with one to five charges were selected, and those that reached an intensity threshold of 20,000 arbitrary units were actively excluded for 0.4 min. The quadrupole isolation width was set to 2 m/z for m/z < 700 and 3 m/z for m/z > 800, with the m/z between 700 m/z and 800 m/z being interpolated linearly. […] To perform diaPASEF, the precursor distribution in the DDA m/z-ion mobility plane was used to design an acquisition scheme for data-independent acquisition (DIA) data collection that included two windows in each 50 ms diaPASEF scan. Data were acquired using 16 of these 25 Da precursor double window scans (creating 32 windows) that covered the diagonal scan line for doubly and triply charged precursors, with singly charged precursors able to be excluded by their position in the m/z-ion mobility plane. These precursor isolation windows were defined between 400 m/z and 1,200 m/z and 1/K0 of 0.7–1.3 V s cm^−2.
DirectDIA mode includes first extracting the DIA data into a collection of MS2 spectra which are searched using Spectronaut’s Pulsar search engine. The search results are then used to generate a spectral library which is then employed for the targeted analysis of the DIA data. MS/MS spectra were searched against a Swissprot human database (January 2021). Database search criteria largely followed the default settings for directDIA including: tryptic with two missed cleavages, fixed carbomidomethylation of cysteine, and variable oxidation of methionine and acetylation of protein N-termini and precursor Q-value (FDR) cut-off of 0.01. […]

CDK12–cyclin K = CDK12–cyclin K (Homo sapiens, UniProt Q9NYV4); experiment: Lanthascreen kinase binding assay, CDK12; conditions: for Lanthascreen raw signal, sheet CDK12: duplicates
CDK12–cyclin K, sequence (Q9NYV4 713-1052): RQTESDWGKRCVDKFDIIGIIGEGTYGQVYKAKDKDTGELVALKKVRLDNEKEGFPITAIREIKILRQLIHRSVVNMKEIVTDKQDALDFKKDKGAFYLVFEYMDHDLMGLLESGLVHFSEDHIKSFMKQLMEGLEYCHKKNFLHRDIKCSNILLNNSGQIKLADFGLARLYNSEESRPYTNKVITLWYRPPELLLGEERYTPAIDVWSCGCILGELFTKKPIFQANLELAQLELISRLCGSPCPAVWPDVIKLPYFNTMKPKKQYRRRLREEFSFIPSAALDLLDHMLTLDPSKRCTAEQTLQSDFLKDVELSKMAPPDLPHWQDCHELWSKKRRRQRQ
CDK12–cyclin K, sequence (O75909 1-267 partner limits assumed): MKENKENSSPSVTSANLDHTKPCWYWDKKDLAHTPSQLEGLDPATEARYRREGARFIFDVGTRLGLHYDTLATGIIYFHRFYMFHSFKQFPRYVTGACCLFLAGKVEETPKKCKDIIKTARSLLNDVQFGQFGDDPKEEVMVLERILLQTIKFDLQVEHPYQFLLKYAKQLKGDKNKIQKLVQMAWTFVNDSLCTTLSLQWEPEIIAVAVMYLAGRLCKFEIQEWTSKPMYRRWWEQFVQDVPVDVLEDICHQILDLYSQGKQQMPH
Description: Lanthascreen experiments were performed using commercially available reagents (Thermo Fisher) and according to the manufacturer’s instructions.

[1] = test system: cyclin K–eGFP degradation reporter; experiment: Cyclin K reporter stability analysis (dual-color cyclin K–eGFP reporter); assay type: cell-based, human; conditions: source data sheet correlations; read-out: DC50
In short: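 Cells (HEK293T–Cas9, reporter-expressing) at 1 × 10^6 ml^−1; 5 h compound or DMSO; flow cytometry; gMFI eGFP ÷ mCherry on round mCherry-positive events; normalized to 3 DMSO controls.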

[2] = Supplementary Table 2, read-out: Lanthascreen IC50 [nM] CDK12

Structure (SMILES): CC[C@H](CO)Nc1nc(NCc2nc3cc(Cl)c(Cl)cc3[nH]2)c2ncn(C(C)C)c2n1 [DS17]
EC50 (HEK293T cells): 93 nM
Toxicity rescue (HEK293T cells): 53%
CDK13 peptide count (CDK13): 156.014 and 130.628
CDK13 peptide count (DMSO-normalised) (CDK13): 0.2321 and 0.2007
CDK inhibitory selectivity, result in words (CDK12–cyclin K; Lanthascreen across CDK2/9/12): CDK12 selective
IC50 (CDK12–cyclin K; [2]): 117 nM
Lanthascreen raw signal, sheet CDK12 (CDK12–cyclin K; compound 0.038147 nM, series r37): 0.01439 and 0.01466
Lanthascreen raw signal, sheet CDK12 (CDK12–cyclin K; compound 0.152588 nM, series r37): 0.01355 and 0.01465
Lanthascreen raw signal, sheet CDK12 (CDK12–cyclin K; compound 0.610352 nM, series r37): 0.01399 and 0.01278
Lanthascreen raw signal, sheet CDK12 (CDK12–cyclin K; compound 9.76563 nM, series r37): 0.01302 and 0.01264
Lanthascreen raw signal, sheet CDK12 (CDK12–cyclin K; compound 39.0625 nM, series r37): 0.01048 and 0.01099
Lanthascreen raw signal, sheet CDK12 (CDK12–cyclin K; compound 156.25 nM, series r37): 0.008496 and 0.009307
Lanthascreen raw signal, sheet CDK12 (CDK12–cyclin K; compound 625 nM, series r37): 0.00749 and 0.007398
Lanthascreen raw signal, sheet CDK12 (CDK12–cyclin K; compound 2500 nM, series r37): 0.006169 and 0.00594
Lanthascreen raw signal, sheet CDK12 (CDK12–cyclin K; compound 10000 nM, series r37): 0.005029 and 0.005256
DC50 [1]: 12 nM

CDK13 peptide count (CDK13): 467.381 and 369.821
CDK13 peptide count (DMSO-normalised) (CDK13): 0.6953 and 0.5683
IC50 (CDK12–cyclin K; Lanthascreen, read-out: CDK12 inhibition): > 10000 nM
IC50 (CDK12–cyclin K; [2]): > 10000 nM
Lanthascreen raw signal, sheet CDK12 (CDK12–cyclin K; compound 0.038147 nM, series r13): 0.01223 and 0.01089
Lanthascreen raw signal, sheet CDK12 (CDK12–cyclin K; compound 0.152588 nM, series r13): 0.01192 and 0.01181
Lanthascreen raw signal, sheet CDK12 (CDK12–cyclin K; compound 0.610352 nM, series r13): 0.01147 and 0.01206
Lanthascreen raw signal, sheet CDK12 (CDK12–cyclin K; compound 1.02544 nM, series r1): 0.009388 and 0.008109
Lanthascreen raw signal, sheet CDK12 (CDK12–cyclin K; compound 3.15521 nM, series r1): 0.008061 and 0.009006
Lanthascreen raw signal, sheet CDK12 (CDK12–cyclin K; compound 9.46563 nM, series r1): 0.008944 and 0.009513
Lanthascreen raw signal, sheet CDK12 (CDK12–cyclin K; compound 9.76563 nM, series r13): 0.01062 and 0.01153
Lanthascreen raw signal, sheet CDK12 (CDK12–cyclin K; compound 31.5521 nM, series r1): 0.009567 and 0.009846
Lanthascreen raw signal, sheet CDK12 (CDK12–cyclin K; compound 39.0625 nM, series r13): 0.01003 and 0.0116
Lanthascreen raw signal, sheet CDK12 (CDK12–cyclin K; compound 99.3891 nM, series r1): 0.009103 and 0.01044
Lanthascreen raw signal, sheet CDK12 (CDK12–cyclin K; compound 156.25 nM, series r13): 0.0115 and 0.0116
Lanthascreen raw signal, sheet CDK12 (CDK12–cyclin K; compound 315.521 nM, series r1): 0.007883 and 0.008557
Lanthascreen raw signal, sheet CDK12 (CDK12–cyclin K; compound 625 nM, series r13): 0.01055 and 0.01154
Lanthascreen raw signal, sheet CDK12 (CDK12–cyclin K; compound 2500 nM, series r13): 0.01098 and 0.01126
Lanthascreen raw signal, sheet CDK12 (CDK12–cyclin K; compound 3155.21 nM, series r1): 0.006491 and 0.00695
Lanthascreen raw signal, sheet CDK12 (CDK12–cyclin K; compound 10000 nM, series r13): 0.01006 and 0.01041
Lanthascreen raw signal, sheet CDK12 (CDK12–cyclin K; compound 10002 nM, series r1): 0.00959 and 0.009612
DC50 [1]: 493 nM
Structure (SMILES): Cc1cccc(Nc2nc(CC(=O)Nc3ncc(C)s3)cs2)n1 [HQ461]
EC50 (HEK293T cells): 1300 nM
Toxicity rescue (HEK293T cells): 159%

— publication PMC10746543, “Design principles for cyclin K molecular glue degraders” (Nature Chemical Biology, 2023)
